Assays:
[1] = Oral bioavailability in male ICR mouse at 3 mg/kg measured upto 24 hrs by LC-MS/MS analysis; type: ADME, organism-based; settings: in vivo
[2] = Drug exposure in CB17 SCID mouse xenografted with human VCaP cells assessed compound concentration in tumor at 1 mg/kg, po measured after 24 hrs by LC-MS/MS analysis; type: ADME, organism-based, Neoplasm; settings: in vivo, BLD = below limit of detection
[3] = target: T1, Protein cereblon/CREB-binding protein (Homo sapiens, UniProt Q92793+Q96SW2); assay: PROTAC activity at CBP/CRBN in AR positive human VCaP cells assessed as maximal protein degradation at 12.3 nM incubated for 4 hrs by Western blot analysis relative to control; type: cell-based
[4] = Reduction in c-Myc gene expression in AR positive human VCaP cells assessed as reduction in mRNA level at 1 nM measured after 6 hrs by qRT-PCT analysis relative to control; type: functional
VCaP [5] = assay: Reduction in KLK3 gene expression in AR positive human VCaP cells assessed as reduction in mRNA level measured after 6 hrs by qRT-PCT analysis relative to control; type: functional, cell-based; settings: dose 0.1-1000 nM
[6] = Reduction in AR gene expression in AR positive human VCaP cells assessed as reduction in mRNA level at 1 nM measured after 6 hrs by qRT-PCT analysis relative to control; type: functional
[7] = target: T1, Protein cereblon/CREB-binding protein; assay: PROTAC activity at CBP/CRBN in AR positive human VCaP cells assessed as maximal protein degradation at 0.15 nM incubated for 4 hrs by Western blot analysis relative to control; type: cell-based
[8] = Plasma concentration in CB17 SCID mouse xenografted with human VCaP cells at 1 mg/kg, po measured after 3 hrs by LC-MS/MS analysis; type: ADME, organism-based
[9] = target: T1, Protein cereblon/CREB-binding protein; assay: In vivo PROTAC activity at p300/CRBN in human VCaP cells xenografted in CB17 SCID mouse assessed as reduction in CBP protein at 3 mg/kg, po measured after 3 hrs; type: functional, organism-based; design: scale not given: the % may be the effect or the level left
[10] = Drug exposure in CB17 SCID mouse xenografted with human VCaP cells assessed compound concentration in tumor at 1 mg/kg, po measured after 3 hrs by LC-MS/MS analysis; type: ADME, organism-based, Neoplasm; settings: read-out: Drug uptake
[11] = Clearance in male ICR mouse at 1 mg/kg, iv measured upto 24 hrs by LC-MS/MS analysis; type: ADME, organism-based; settings: in vivo
LNCaP [12] = assay: Reduction in c-Myc gene expression in AR positive human LNCaP cells assessed as reduction in mRNA level measured after 6 hrs by qRT-PCT analysis relative to control; type: functional, cell-based; settings: dose 0.1-1000 nM
VCaP [13] = assay: Potency index, ratio of GNE-049 IC50 to test compound IC50 for antiproliferative activity against AR positive human VCaP cells assessed inhibition of cell growth measured after 4 days by CellTiter-Glo Luminescent cell viability assay; type: functional; settings: time 4 day
[14] = Reduction in KLK3 gene expression in AR positive human LNCaP cells assessed as reduction in mRNA level at 10 nM measured after 6 hrs by qRT-PCT analysis relative to control; type: functional
[15] = Plasma concentration in CB17 SCID mouse xenografted with human VCaP cells at 3 mg/kg, po measured after 3 hrs by LC-MS/MS analysis; type: ADME, organism-based
LNCaP [16] = assay: Antiproliferative activity against AR positive human LNCaP cells assessed inhibition of cell growth measured after 4 days by CellTiter-Glo Luminescent cell viability assay; type: functional, cell-based; settings: 96 h
CWR22R [17] = assay: Reduction in AR gene expression in AR positive human 22Rv1 cells assessed as reduction in mRNA level measured after 6 hrs by qRT-PCT analysis relative to control; type: functional, cell-based; settings: dose 0.1-1000 nM
CWR22R [18] = assay: Reduction in c-Myc gene expression in AR positive human 22Rv1 cells assessed as reduction in mRNA level measured after 6 hrs by qRT-PCT analysis relative to control; type: functional, cell-based; settings: dose 0.1-1000 nM
[19] = target: T1, Protein cereblon/CREB-binding protein; assay: PROTAC activity at CBP/CRBN in AR positive human VCaP cells assessed as maximal protein degradation at 333.3 nM incubated for 4 hrs by Western blot analysis relative to control; type: cell-based
[20] = target: T1, Protein cereblon/CREB-binding protein; assay: In vivo PROTAC activity at CBP/CRBN in human VCaP cells xenografted in SCID mouse assessed as reduction in CBP protein at 3 mg/kg, po measured after 24 hrs; type: functional, organism-based; design: scale not given: the % may be the effect or the level left
[21] = target: T2, Protein cereblon/Histone acetyltransferase p300 (Homo sapiens, UniProt Q09472+Q96SW2); assay: PROTAC activity at p300/CRBN in AR positive human VCaP cells assessed as maximal protein degradation at 1.4 nM incubated for 4 hrs by Western blot analysis relative to control; type: cell-based
[22] = target: T1, Protein cereblon/CREB-binding protein; assay: PROTAC activity at CBP/CRBN in AR positive human VCaP cells assessed as maximal protein degradation at 4.1 nM incubated for 4 hrs by Western blot analysis relative to control; type: cell-based
[23] = target: T1, Protein cereblon/CREB-binding protein; assay: In vivo PROTAC activity at p300/CRBN in human VCaP cells xenografted in CB17 SCID mouse assessed as reduction in CBP protein at 1 mg/kg, po measured after 3 hrs; type: functional, organism-based; design: scale not given: the % may be the effect or the level left
[24] = target: T2, Protein cereblon/Histone acetyltransferase p300; assay: PROTAC activity at p300/CRBN in AR positive human VCaP cells assessed as maximal protein degradation at 37 nM incubated for 4 hrs by Western blot analysis relative to control; type: cell-based
[25] = target: T1, Protein cereblon/CREB-binding protein; assay: PROTAC activity at CBP/CRBN in AR positive human VCaP cells assessed as maximal protein degradation at 1.4 nM incubated for 4 hrs by Western blot analysis relative to control; type: cell-based
[26] = Reduction in AR gene expression in AR positive human LNCaP cells assessed as reduction in mRNA level at 10 nM measured after 6 hrs by qRT-PCT analysis relative to control; type: functional
[27] = target: T1, Protein cereblon/CREB-binding protein; assay: PROTAC activity at CBP/CRBN in human VCaP cells assessed as maximal protein degradation at 1 uM incubated for 4 hrs by Western blot analysis relative to control; type: cell-based
[28] = target: T2, Protein cereblon/Histone acetyltransferase p300; assay: PROTAC activity at p300/CRBN in human 22Rv1 cells assessed as protein degradation incubated for 4 hrs by Western blot analysis; type: cell-based
[29] = AUC in male ICR mouse at 3 mg/kg, po measured upto 24 hrs by LC-MS/MS analysis; type: ADME, organism-based; settings: in vivo
LNCaP [30] = assay: Potency index, ratio of ARV-110 IC50 to test compound IC50 for antiproliferative activity against AR positive human LNCaP cells assessed inhibition of cell growth measured after 4 days by CellTiter-Glo Luminescent cell viability assay; type: functional; settings: time 4 day
[31] = target: T1, Protein cereblon/CREB-binding protein; assay: In vivo PROTAC activity at p300/CRBN in human VCaP cells xenografted in CB17 SCID mouse assessed as reduction in CBP protein at 3 mg/kg, po measured after 24 hrs; type: functional, organism-based; design: scale not given: the % may be the effect or the level left
[32] = target: T1, Protein cereblon/CREB-binding protein; assay: PROTAC activity at CBP/CRBN in AR positive human VCaP cells assessed as maximal protein degradation at 0.46 nM incubated for 4 hrs by Western blot analysis relative to control; type: cell-based
VCaP [33] = assay: Antitumor activity against human VCaP cells xenografted in CB17 SCID mouse model assessed as tumor growth inhibition at 1 mg/kg, po qd scheduled 5 days in a week measured on day 63; type: functional; settings: 1512 h, time 63 day, read-out: TGI

T1 sequence (Q92793 2-2442 limits assumed): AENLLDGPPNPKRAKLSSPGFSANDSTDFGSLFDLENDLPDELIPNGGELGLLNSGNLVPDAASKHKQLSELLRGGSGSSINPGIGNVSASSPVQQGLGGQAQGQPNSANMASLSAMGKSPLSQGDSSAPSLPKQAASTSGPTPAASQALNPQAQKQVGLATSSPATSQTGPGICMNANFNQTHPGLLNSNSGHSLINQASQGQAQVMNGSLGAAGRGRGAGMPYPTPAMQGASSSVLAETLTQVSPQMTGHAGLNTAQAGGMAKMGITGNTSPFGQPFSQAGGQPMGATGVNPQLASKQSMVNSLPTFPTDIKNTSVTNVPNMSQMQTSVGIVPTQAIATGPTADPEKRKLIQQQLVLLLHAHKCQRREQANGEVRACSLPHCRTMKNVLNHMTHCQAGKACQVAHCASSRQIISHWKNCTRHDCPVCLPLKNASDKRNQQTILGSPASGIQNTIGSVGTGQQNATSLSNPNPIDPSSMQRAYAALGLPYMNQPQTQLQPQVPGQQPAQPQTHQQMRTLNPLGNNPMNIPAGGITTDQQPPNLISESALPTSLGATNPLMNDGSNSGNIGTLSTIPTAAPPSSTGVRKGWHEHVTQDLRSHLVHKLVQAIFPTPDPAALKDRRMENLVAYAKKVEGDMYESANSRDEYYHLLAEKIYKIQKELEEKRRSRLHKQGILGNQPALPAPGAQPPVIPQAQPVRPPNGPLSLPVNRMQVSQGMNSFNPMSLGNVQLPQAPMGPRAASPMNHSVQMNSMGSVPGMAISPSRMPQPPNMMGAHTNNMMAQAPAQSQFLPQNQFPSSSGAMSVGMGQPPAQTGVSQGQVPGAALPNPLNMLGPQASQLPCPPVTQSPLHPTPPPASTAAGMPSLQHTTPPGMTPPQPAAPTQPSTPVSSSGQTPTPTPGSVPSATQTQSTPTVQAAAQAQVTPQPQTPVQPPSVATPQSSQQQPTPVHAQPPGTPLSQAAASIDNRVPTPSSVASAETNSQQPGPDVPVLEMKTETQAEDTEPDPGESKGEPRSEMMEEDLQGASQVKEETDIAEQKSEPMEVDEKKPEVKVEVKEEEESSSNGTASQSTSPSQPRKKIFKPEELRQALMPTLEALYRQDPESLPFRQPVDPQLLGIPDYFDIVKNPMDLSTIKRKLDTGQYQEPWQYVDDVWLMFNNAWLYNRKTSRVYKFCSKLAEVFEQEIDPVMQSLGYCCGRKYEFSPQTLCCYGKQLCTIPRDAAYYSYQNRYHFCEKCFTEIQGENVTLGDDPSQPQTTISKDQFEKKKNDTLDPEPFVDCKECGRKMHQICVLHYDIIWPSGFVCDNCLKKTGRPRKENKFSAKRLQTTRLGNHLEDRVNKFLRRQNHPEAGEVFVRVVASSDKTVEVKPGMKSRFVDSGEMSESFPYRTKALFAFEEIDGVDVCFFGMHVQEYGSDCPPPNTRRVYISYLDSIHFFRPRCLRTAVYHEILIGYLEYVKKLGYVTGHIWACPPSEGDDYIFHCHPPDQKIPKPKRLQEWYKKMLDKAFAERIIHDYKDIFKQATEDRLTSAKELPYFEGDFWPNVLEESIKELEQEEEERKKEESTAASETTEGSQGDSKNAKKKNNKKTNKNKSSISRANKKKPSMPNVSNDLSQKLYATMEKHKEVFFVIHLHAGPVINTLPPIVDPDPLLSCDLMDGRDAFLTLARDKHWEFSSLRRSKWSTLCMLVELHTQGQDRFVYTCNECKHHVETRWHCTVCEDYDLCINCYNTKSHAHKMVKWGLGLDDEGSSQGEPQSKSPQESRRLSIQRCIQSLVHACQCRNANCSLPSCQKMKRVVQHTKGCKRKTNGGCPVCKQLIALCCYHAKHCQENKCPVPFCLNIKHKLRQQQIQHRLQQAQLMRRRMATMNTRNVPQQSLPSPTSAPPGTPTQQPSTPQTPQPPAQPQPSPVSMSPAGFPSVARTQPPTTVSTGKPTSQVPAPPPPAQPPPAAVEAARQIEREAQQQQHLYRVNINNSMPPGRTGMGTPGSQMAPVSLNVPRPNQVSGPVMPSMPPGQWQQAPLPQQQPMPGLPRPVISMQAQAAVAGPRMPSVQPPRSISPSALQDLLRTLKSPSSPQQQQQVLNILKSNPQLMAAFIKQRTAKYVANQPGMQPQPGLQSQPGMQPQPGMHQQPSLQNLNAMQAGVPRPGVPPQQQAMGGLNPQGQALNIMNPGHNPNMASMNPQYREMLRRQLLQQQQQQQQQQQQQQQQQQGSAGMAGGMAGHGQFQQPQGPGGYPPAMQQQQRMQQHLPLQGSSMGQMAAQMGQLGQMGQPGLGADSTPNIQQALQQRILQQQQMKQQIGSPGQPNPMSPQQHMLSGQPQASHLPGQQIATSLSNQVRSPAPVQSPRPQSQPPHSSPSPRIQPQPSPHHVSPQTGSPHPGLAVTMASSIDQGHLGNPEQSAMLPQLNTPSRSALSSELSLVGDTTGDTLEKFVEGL
T1 sequence (Q96SW2 whole entry partner): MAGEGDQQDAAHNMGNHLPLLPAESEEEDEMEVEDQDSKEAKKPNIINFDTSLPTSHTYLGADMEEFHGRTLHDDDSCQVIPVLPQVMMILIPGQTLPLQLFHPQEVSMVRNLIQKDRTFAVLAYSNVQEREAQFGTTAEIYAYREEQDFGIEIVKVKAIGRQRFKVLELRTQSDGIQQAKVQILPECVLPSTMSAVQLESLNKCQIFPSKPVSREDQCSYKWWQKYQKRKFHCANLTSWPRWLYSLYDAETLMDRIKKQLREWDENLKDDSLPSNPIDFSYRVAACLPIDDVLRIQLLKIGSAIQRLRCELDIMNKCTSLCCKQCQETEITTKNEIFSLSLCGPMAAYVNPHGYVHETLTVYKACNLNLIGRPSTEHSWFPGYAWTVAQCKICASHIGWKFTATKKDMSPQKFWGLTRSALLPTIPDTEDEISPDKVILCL

With `CC(=O)N1CCc2c(c(N3CCCc4cc(-c5cnn(C)c5)c(C(F)F)cc43)nn2[C@H]2CC[C@H](CN3CCN(c4ccc5c(c4)C(=O)N(C4CCC(=O)NC4=O)C5=O)CC3)CC2)C1` (stereo partly drawn) the bioavailability [1] was 50%, the Drug uptake [2] was “Bld” and the Activity [3] was 98%. The inhibition at 0.001 µM [4] was > 95%, the inhibition (VCaP [5]) was “Dose-Dependent Effect” and the inhibition at 0.001 µM [6] was 77%. The Activity [7] was 15%, the concentration at 3 h [8] was 95 ng/mL and the Activity [9] was > 95%. For the same compound, the concentration at 3 h [10] was 30 ng/mL, the clearance [11] was 1.7 mL/min/kg and the inhibition (LNCaP [12]) was “Dose-Dependent Effect”. For the same compound, the “Ratio IC50” value (VCaP [13]) was 100, the inhibition at 0.01 µM [14] was 70% and the concentration at 3 h [15] was 355 ng/mL. For the same compound, the IC50 (LNCaP [16]) was 1.6 nM, the inhibition (CWR22R [17]) was “Dose-Dependent Effect” and the inhibition (CWR22R [18]) was “Dose-Dependent Effect”. The Activity [19] was 78%, the Activity [20] was > 95% and the Activity [21] was 97%. For the same compound, the Activity [22] was 97%, the Activity [23] was > 95% and the Activity [24] was 100%. For the same compound, the Activity [25] was 91%, the inhibition at 0.01 µM [26] was 67% and the Emax [27] was > 95%. The DC50 [28] was 0.4 nM, the AUC at 24 h [29] was 15500 ng·h/mL and the “Ratio IC50” value (LNCaP [30]) was >50. For the same compound, the Activity [31] was > 95%, the Activity [32] was 76% and the inhibition in vivo at 1 mg/kg (VCaP [33]) was 87%.

From ChEMBL document CHEMBL5518240 (J Med Chem, 2024)
